Assay results from US11390631B1, “Benzodiazepine derivatives as RSV inhibitors” (priority 2015, dated 2022).

Tests used:
[1] = system: Human RSV-A (“Long” strain); assay: RSV-A assay: inhibition of cytopathic effect in Hep-2 cells, ATPlite readout; type: cell-based, Human respiratory syncytial virus (HRSV); conditions: human respiratory syncytial virus, HEp-2, 120 h, read-out: Human RSV-A (“Long” strain) EC50
Summary of the method: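 Hep-2 cells (8,000/well) were infected with RSV-A Long at MOI 0.1 alongside duplicate 2-fold compound dilutions. After 5 days, cell viability was read by ATPlite luminescence to give EC50. CC50 came from a parallel plate without virus.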

[2] = Cytotoxicity on parallel plate without virus, ATPlite readout; type: cell-based; conditions: human, Hep-2 cells (no virus), Hep-2 cells without virus, 5-day incubation
Procedure: Following extensive parameter testing, the final assay is run as follows: Hep-2 cells are seeded into the inner 60 wells of a 96-well plate at 8,000 cells per well in a volume of 50 μL using Growth Media (DMEM without phenol red, 1% L-Glut, 1% Penn/Strep, 1% nonessential amino acids, 10% heat-inactivated FBS). 2-fold serial dilutions of control and test compounds are added to the wells in duplicate in a total volume of 25 μL. Viral stock is then added to the wells at a multiplicity of infection (MOI) of 0.1 in a volume of 25 μL, bringing the total volume of each well to 100 μL. The MOI is calculated using the PFU/mL, or TCID50 if unavailable. Each 96-well plate has a control column of 6 wells with cells and virus but no compound (negative control, max CPE), a column with cells but no compound or virus (positive control, minimum CPE), and a column with no cells or virus or compound (background plate/reagent control). The control wells with cells but no virus are given an additional 25 uL of growth media containing an equal quantity of sucrose as those wells receiving the viral stock in order to keep consistent in media and volume conditions. The outer wells of the plate are filled with 125 μL of moat media (DMEM, 1% Penn/Strep) to act as a thermal and evaporative moat around the test wells. Following a 5-day incubation period, the plates are read using ATPlite (50 uL added per well), which quantifies the amount of ATP (a measure of cell health) present in each well. Assay plates are read using the Envision luminometer. In parallel, cytotoxicity is examined on an additional 96-well plate treated in an identical manner, but substituting the 25 μL of viral stock for 25 μL of growth media. […] EC50 ranges are as follows: A<0.4 μM; B 0.4-0.8 μM; C>0.8 μM and CC50 ranges are as follows: A>50 μM; B 10-50 μM; C<10 μM.

O=C1Nc2ccccc2C(c2ccccc2)=NC1Nc1nnc(-c2ccc(-n3cccn3)cc2)o1 (stereo not shown) [Example 36]
EC50 [1]: 0.4 to 0.8 µM | CC50 at 5 days [2]: 10 to 50 µM

O=C1Nc2ccccc2C(c2ccccc2)=NC1Nc1nnc(-c2cccnc2)o1 (stereo not shown) [Example 37]
EC50 [1]: > 0.8 µM | CC50 at 5 days [2]: > 50 µM

N#Cc1cc(-c2nnc(NC3N=C(c4ccccc4)c4ccccc4NC3=O)o2)ccn1 (stereo not shown) [Example 38]
EC50 [1]: > 0.8 µM | CC50 at 5 days [2]: > 50 µM

O=C1Nc2ccccc2C(c2ccccc2)=NC1Nc1nnc(-c2ccc(=O)[nH]c2)o1 (stereo not shown) [Example 39]
EC50 [1]: > 0.8 µM | CC50 at 5 days [2]: > 50 µM

O=C1Nc2ccccc2C(c2ccccc2)=NC1Nc1nnc(-c2cc[nH]c(=O)c2)o1 (stereo not shown) [Example 40]
EC50 [1]: > 0.8 µM | CC50 at 5 days [2]: > 50 µM

O=C1Nc2ccccc2C(c2ccccc2)=NC1Nc1nnc(-c2ccc3nc[nH]c3c2)o1 (stereo not shown) [Example 41]
EC50 [1]: > 0.8 µM | CC50 at 5 days [2]: > 50 µM

O=C1Nc2ccccc2C(c2ccccc2)=NC1Nc1nnc(-c2cc3cccnc3s2)o1 (stereo not shown) [Example 43]
EC50 [1]: > 0.8 µM | CC50 at 5 days [2]: > 50 µM

CN1CCc2nc(-c3nnc(NC4N=C(c5ccccc5)c5ccccc5NC4=O)o3)sc2C1 (stereo not shown) [Example 44]
EC50 [1]: > 0.8 µM | CC50 at 5 days [2]: > 50 µM

O=C1Nc2ccccc2C(c2ccccc2)=NC1Nc1nnc(C2CCNCC2)o1 (stereo not shown) [Example 45]
EC50 [1]: > 0.8 µM | CC50 at 5 days [2]: > 50 µM

CN1CCC(c2nnc(NC3N=C(c4ccccc4)c4ccccc4NC3=O)o2)CC1 (stereo not shown) [Example 46]
EC50 [1]: > 0.8 µM | CC50 at 5 days [2]: > 50 µM

CC(=O)N1CCC(c2nnc(NC3N=C(c4ccccc4)c4ccccc4NC3=O)o2)CC1 (stereo not shown) [Example 47]
EC50 [1]: > 0.8 µM | CC50 at 5 days [2]: > 50 µM

O=C1Nc2ccccc2C(c2ccccc2)=NC1Nc1nnc([C@@H]2COCCN2)o1 (stereo partly shown) [Example 48]
EC50 [1]: > 0.8 µM | CC50 at 5 days [2]: > 50 µM

O=C1Nc2ccccc2C(c2ccccc2)=NC1Nc1nnc([C@H]2COCCN2)o1 (stereo partly shown) [Example 49]
EC50 [1]: > 0.8 µM | CC50 at 5 days [2]: > 50 µM

O=C1Nc2ccccc2C(c2ccccc2)=NC1Nc1nnc(-c2ccc(F)cc2F)o1 (stereo not shown) [Example 50]
EC50 [1]: > 0.8 µM | CC50 at 5 days [2]: > 50 µM

COc1ccc(-c2nnc(NC3N=C(c4ccccc4)c4ccccc4NC3=O)o2)nc1 (stereo not shown) [Example 51]
EC50 [1]: 0.4 to 0.8 µM | CC50 at 5 days [2]: > 50 µM

COc1cccc(-c2nnc(NC3N=C(c4ccccc4)c4ccccc4NC3=O)o2)n1 (stereo not shown) [Example 52]
EC50 [1]: < 0.4 µM | CC50 at 5 days [2]: > 50 µM

O=C1Nc2ccccc2C(c2ccccc2)=NC1Nc1nnc(-c2ccc(F)nc2)o1 (stereo not shown) [Example 53]
EC50 [1]: 0.4 to 0.8 µM | CC50 at 5 days [2]: > 50 µM

COc1ccc(-c2nnc(NC3N=C(c4ccccc4)c4ccccc4NC3=O)o2)cn1 (stereo not shown) [Example 54]
EC50 [1]: < 0.4 µM | CC50 at 5 days [2]: > 50 µM

O=C1Nc2ccccc2C(c2ccccc2)=NC1Nc1nnc(-c2ccnc(F)c2)o1 (stereo not shown) [Example 55]
EC50 [1]: < 0.4 µM | CC50 at 5 days [2]: > 50 µM

COc1ccnc(-c2nnc(NC3N=C(c4ccccc4)c4ccccc4NC3=O)o2)c1 (stereo not shown) [Example 57]
EC50 [1]: > 0.8 µM | CC50 at 5 days [2]: > 50 µM

O=C1Nc2ccccc2C(c2ccccc2)=NC1Nc1nnc(-c2cnccn2)o1 (stereo not shown) [Example 58]
EC50 [1]: > 0.8 µM | CC50 at 5 days [2]: > 50 µM

O=C1Nc2ccccc2C(c2ccccc2)=NC1Nc1nnc(-c2ncccn2)o1 (stereo not shown) [Example 59]
EC50 [1]: > 0.8 µM | CC50 at 5 days [2]: > 50 µM

O=C1Nc2ccccc2C(c2ccccc2)=NC1Nc1nnc(-c2cncnc2)o1 (stereo not shown) [Example 60]
EC50 [1]: > 0.8 µM | CC50 at 5 days [2]: > 50 µM

O=C1Nc2ccccc2C(c2ccccc2)=NC1Nc1nnc(-c2ccncc2)o1 (stereo not shown) [Example 61]
EC50 [1]: 0.4 to 0.8 µM | CC50 at 5 days [2]: > 50 µM

O=C1Nc2ccccc2C(c2ccccc2)=NC1Nc1nnc(-c2cccnn2)o1 (stereo not shown) [Example 62]
EC50 [1]: > 0.8 µM | CC50 at 5 days [2]: > 50 µM

O=C1Nc2ccccc2C(c2ccccc2)=NC1Nc1nnc(-c2ccncn2)o1 (stereo not shown) [Example 63]
EC50 [1]: > 0.8 µM | CC50 at 5 days [2]: > 50 µM

COCc1cccc(-c2nnc(NC3N=C(c4ccccc4)c4ccccc4NC3=O)o2)n1 (stereo not shown) [Example 64]
EC50 [1]: > 0.8 µM | CC50 at 5 days [2]: > 50 µM

Cn1nccc1-c1nnc(NC2N=C(c3ccccc3)c3ccccc3NC2=O)o1 (stereo not shown) [Example 65]
EC50 [1]: > 0.8 µM | CC50 at 5 days [2]: > 50 µM

Cn1cc(-c2nnc(NC3N=C(c4ccccc4)c4ccccc4NC3=O)o2)cn1 (stereo not shown) [Example 66]
EC50 [1]: 0.4 to 0.8 µM | CC50 at 5 days [2]: > 50 µM

Cn1ccnc1-c1nnc(NC2N=C(c3ccccc3)c3ccccc3NC2=O)o1 (stereo not shown) [Example 67]
EC50 [1]: > 0.8 µM | CC50 at 5 days [2]: > 50 µM

Cn1cnc(-c2nnc(NC3N=C(c4ccccc4)c4ccccc4NC3=O)o2)c1 (stereo not shown) [Example 68]
EC50 [1]: > 0.8 µM | CC50 at 5 days [2]: > 50 µM

O=C1Nc2ccccc2C(c2ccccc2)=NC1Nc1nnc(-c2nccs2)o1 (stereo not shown) [Example 69]
EC50 [1]: > 0.8 µM | CC50 at 5 days [2]: > 50 µM

O=C1Nc2ccccc2C(c2ccccc2)=NC1Nc1nnc(-c2ncco2)o1 (stereo not shown) [Example 70]
EC50 [1]: > 0.8 µM | CC50 at 5 days [2]: > 50 µM

Cc1ccc(-c2nnc(NC3N=C(c4ccccc4)c4ccccc4NC3=O)o2)o1 (stereo not shown) [Example 71]
EC50 [1]: > 0.8 µM | CC50 at 5 days [2]: > 50 µM

COCc1ccc(-c2nnc(NC3N=C(c4ccccc4)c4ccccc4NC3=O)o2)o1 (stereo not shown) [Example 72]
EC50 [1]: > 0.8 µM | CC50 at 5 days [2]: > 50 µM

CN(C)Cc1ccc(-c2nnc(NC3N=C(c4ccccc4)c4ccccc4NC3=O)o2)o1 (stereo not shown) [Example 73]
EC50 [1]: > 0.8 µM | CC50 at 5 days [2]: > 50 µM

Cc1cc(-c2nnc(NC3N=C(c4ccccc4)c4ccccc4NC3=O)o2)on1 (stereo not shown) [Example 74]
EC50 [1]: > 0.8 µM | CC50 at 5 days [2]: > 50 µM

O=C1Nc2ccccc2C(c2ccccc2)=NC1Nc1nnc(-c2cnco2)o1 (stereo not shown) [Example 75]
EC50 [1]: > 0.8 µM | CC50 at 5 days [2]: > 50 µM

O=C1Nc2ccccc2C(c2ccccc2)=NC1Nc1nnc(-c2cncs2)o1 (stereo not shown) [Example 76]
EC50 [1]: > 0.8 µM | CC50 at 5 days [2]: > 50 µM

O=C1Nc2ccccc2C(c2ccccc2)=NC1Nc1nnc(-c2cscn2)o1 (stereo not shown) [Example 77]
EC50 [1]: 0.4 to 0.8 µM | CC50 at 5 days [2]: > 50 µM

O=C1Nc2ccccc2C(c2ccccc2)=NC1Nc1nnco1 (stereo not shown) [Example 79]
EC50 [1]: > 0.8 µM | CC50 at 5 days [2]: > 50 µM

O=C1Nc2ccccc2C(c2ccccc2)=NC1Nc1nnc(-c2ccc(F)cc2)s1 (stereo not shown) [Example 80]
EC50 [1]: > 0.8 µM | CC50 at 5 days [2]: > 50 µM

O=C1Nc2ccccc2C(c2ccccc2)=NC1Nc1nnc(-c2ccccc2)s1 (stereo not shown) [Example 81]
EC50 [1]: > 0.8 µM | CC50 at 5 days [2]: > 50 µM

N#Cc1ccc(-c2nnc(NC3N=C(c4ccccc4)c4ccccc4NC3=O)s2)cc1 (stereo not shown) [Example 82]
EC50 [1]: 0.4 to 0.8 µM | CC50 at 5 days [2]: > 50 µM

O=C1Nc2ccccc2C(c2ccccc2)=NC1Nc1nnc(-c2ccncc2)s1 (stereo not shown) [Example 83]
EC50 [1]: > 0.8 µM | CC50 at 5 days [2]: > 50 µM

O=C1Nc2ccccc2C(c2ccccc2)=NC1Nc1ncc(-c2ccccc2)o1 (stereo not shown) [Example 84]
EC50 [1]: > 0.8 µM | CC50 at 5 days [2]: 10 to 50 µM

O=C1Nc2ccccc2C(c2ccccc2)=NC1Nc1nnc(-c2ccccc2)[nH]1 (stereo not shown) [Example 86]
EC50 [1]: > 0.8 µM | CC50 at 5 days [2]: > 50 µM

O=C1Nc2ccccc2C(c2ccccc2)=NC1Nc1nc(-c2ccccc2)ns1 (stereo not shown) [Example 87]
EC50 [1]: > 0.8 µM | CC50 at 5 days [2]: 10 to 50 µM

O=C1Nc2ccccc2C(c2ccccc2)=NC1Nc1nc(N2CCOCC2)ns1 (stereo not shown) [Example 88]
EC50 [1]: > 0.8 µM | CC50 at 5 days [2]: 10 to 50 µM

O=C1Nc2ccccc2C(c2ccccc2)=NC1Nc1nc(-c2ccccc2)no1 (stereo not shown) [Example 89]
EC50 [1]: > 0.8 µM | CC50 at 5 days [2]: 10 to 50 µM

O=C1Nc2ccccc2C(c2ccccc2)=NC1Nc1nc(-c2ccccc2)cs1 (stereo not shown) [Example 90]
EC50 [1]: > 0.8 µM | CC50 at 5 days [2]: < 10 µM

O=C1Nc2ccccc2C(c2ccccc2)=NC1Nc1cc(-c2ccccc2)ncn1 (stereo not shown) [Example 92]
EC50 [1]: > 0.8 µM | CC50 at 5 days [2]: 10 to 50 µM

O=C1Nc2ccccc2C(c2ccccc2)=NC1Nc1cc(N2CCOCC2)ncn1 (stereo not shown) [Example 93]
EC50 [1]: > 0.8 µM | CC50 at 5 days [2]: 10 to 50 µM

O=C1Nc2ccccc2C(c2ccccc2)=NC1Nc1cc(Oc2ccccc2)ncn1 (stereo not shown) [Example 94]
EC50 [1]: > 0.8 µM | CC50 at 5 days [2]: 10 to 50 µM

O=C1Nc2ccccc2C(c2ccccc2)=NC1Nc1ccnc(-c2ccccc2)n1 (stereo not shown) [Example 96]
EC50 [1]: > 0.8 µM | CC50 at 5 days [2]: 10 to 50 µM

O=C1Nc2ccccc2C(c2ccccc2)=NC1Nc1cccn(Cc2ccccc2)c1=O (stereo not shown) [Example 97]
EC50 [1]: > 0.8 µM | CC50 at 5 days [2]: > 50 µM

O=C1Nc2ccccc2C(c2ccccc2)=NC1Nc1nc2ccc(Cl)cc2o1 (stereo not shown) [Example 99]
EC50 [1]: > 0.8 µM | CC50 at 5 days [2]: 10 to 50 µM

O=C1Nc2ccccc2C(c2ccccc2)=NC1Nc1nc2ccccc2o1 (stereo not shown) [Example 100]
EC50 [1]: > 0.8 µM | CC50 at 5 days [2]: 10 to 50 µM

O=C1Nc2ccccc2C(c2ccccc2)=NC1Nc1nc2ccccc2s1 (stereo not shown) [Example 101]
EC50 [1]: > 0.8 µM | CC50 at 5 days [2]: 10 to 50 µM
